“And” between values parts separate entries of the source, which are not always exact repeats. Equal values may be shown once.

The nature of this data set: not told.

Regarding `COC(=O)C1CC2(CC2)CN1C(C)=O` (centres unmarked), the “log partition 1-octanol / water” value is 0.19 log10.

Take `COC(=O)C1CC2(CN1C(C)=O)CC2(F)F` (centres unmarked): the “log partition 1-octanol / water” value was 0.18 log10 and 0.03 log10.

Values taken from PMC7385359.
